The target of this assay is T1, human V1a receptor (Homo sapiens, UniProt P37288).
T1 construct: expressed in transfected cells; host or cells: HEK293 cells, transiently transfected; membrane preparation
In words: human V1a receptor binding (3H-Vasopressin SPA, HEK293 membranes). As to conditions: displacement of 3H-Vasopressin; membranes of HEK293 cells transiently transfected with human V1a receptor; Ki from IC50 by Cheng-Prussoff equation. As to the method:
The human V1a receptor was cloned by RT-PCR from total human liver RNA. The coding sequence was subcloned in an expression vector after sequencing to confirm the identity of the amplified sequence. […] Cell membranes were prepared from HEK293 cells transiently transfected with the expression vector and grown in 20 liter fermenters with the following protocol.
50 g of cells are resuspended in 30 ml freshly prepared ice cold Lysis buffer (50 mM HEPES, 1 mM EDTA, 10 mM MgCl2 adjusted to pH=7.4+complete cocktail of protease inhibitor (Roche Diagnostics)). Homogenized with Polytron for 1 min and sonicated on ice for 2×2 minutes at 80% intensity (Vibracell sonicator). The preparation is centrifuged 20 min at 500 g at 4° C., the pellet is discarded and the supernatant centrifuged 1 hour at 43,000 g at 4° C. (19,000 rpm). The pellet is resuspended in 12.5 ml Lysis buffer+12.5 ml Sucrose 20% and homogenized using a Polytron for 1-2 min. The protein concentration is determined by the Bradford method, and aliquots are stored at −80° C. until use. For binding studies 60 mg Yttrium silicate SPA beads (Amersham) are mixed with an aliquot of membrane in binding buffer (50 mM Tris, 120 mM NaCl, 5 mM KCl, 2 mM CaCl2, 10 mM MgCl2) for 15 minutes with mixing. 50 ul of bead/membrane mixture is then added to each well of a 96 well plate, followed by 50 ul of 4 nM 3H-Vasopressin (American Radiolabeled Chemicals). For total binding measurement 100 ul of binding buffer are added to the respective wells, for non-specific binding 100 ul of […] cold vasopressin and for compound testing 100 ul of a serial dilution of each compound in 2% DMSO. The plate is incubated 1 h at room temperature, centrifuged 1 min at 1000 g and counted on a Packard Top-Count. Non-specific binding counts are subtracted from each well, and data is normalized to the maximum specific binding set at 100%. To calculate an IC 50 the curve is fitted using a non-linear regression model (XLfit), and the Ki is calculated using the Cheng-Prussoff equation.
For orientation: Displacement assays read how much labelled ligand stays bound in the presence of the test substance.

T1 sequence (P37288 whole entry): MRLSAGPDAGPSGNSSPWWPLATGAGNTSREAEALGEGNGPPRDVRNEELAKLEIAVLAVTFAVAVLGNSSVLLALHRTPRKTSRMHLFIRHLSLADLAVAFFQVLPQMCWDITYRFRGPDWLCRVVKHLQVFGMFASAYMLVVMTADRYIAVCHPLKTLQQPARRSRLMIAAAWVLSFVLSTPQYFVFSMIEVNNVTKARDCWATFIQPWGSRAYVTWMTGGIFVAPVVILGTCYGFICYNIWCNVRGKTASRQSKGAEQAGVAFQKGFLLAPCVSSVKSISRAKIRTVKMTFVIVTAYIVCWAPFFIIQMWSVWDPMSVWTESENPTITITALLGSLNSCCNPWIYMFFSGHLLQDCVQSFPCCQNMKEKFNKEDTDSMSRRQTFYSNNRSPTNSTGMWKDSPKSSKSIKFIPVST

As for `O=C(c1c[nH]c2cc(Cl)ccc12)N1CCC2(CC1)OCCO2` [Example 16, 8-[(6-Chloro-1H-indol-3-yl)carbonyl]-1,4-dioxa-8-azaspiro[4.5]decane], the Ki was 284 nM. As for `CN1CN(c2ccccc2)C2(CCN(C(=O)c3cn(Cc4cc(F)cc(F)c4)c4cc(Cl)ccc34)CC2)C1=O` [Example 9, 8-{[6-Chloro-1-(3,5-difluorobenzyl)-1H-indol-3-yl]carbonyl}-3-methyl-1-phenyl-1,3,8-triazaspiro[4.5]decan-4-one], the Ki was determined as 21 nM.

`CN(C)CCn1cc(C(=O)N2CCC3(CC2)C(=O)N(C)CN3c2ccccc2)c2ccc(Cl)cc21` [Example 7, 8-({6-Chloro-1-[2-(dimethylamino)ethyl]-1H-indol-3-yl}carbonyl)-3-methyl-1-phenyl-1,3,8-triazaspiro[4.5]decan-4-one] returned an inhibition constant (Ki) of 156 nM. The same measure for `Cc1c(C(=O)N2CCC3(CC2)C(=O)NCN3c2ccccc2)c2ccccc2n1Cc1ccccc1` [Example 2, 8-(1-Benzyl-2-methyl-1H-indole-3-carbonyl)-1-phenyl-1,3,8-triaza-spiro[4.5]decan-4-one]: 367 nM; for `CNC(=O)Cn1cc(C(=O)N2CCC3(CC2)C(=O)N(C)CN3c2ccccc2)c2ccc(Cl)cc21` [Example 8, 2-{6-Chloro-3-[(3-methyl-4-oxo-1-phenyl-1,3,8-triazaspiro[4.5]dec-8-yl)carbonyl]-1H-indol-1-yl}-N-methylacetamide]: 37 nM. As for `CN(C)CCNC(=O)Cn1cc(C(=O)N2CCC3(CC2)C(=O)N(C)CN3c2ccccc2)c2ccc(Cl)cc21` [Example 14, 2-{6-Chloro-3-[(3-methyl-4-oxo-1-phenyl-1,3,8-triazaspiro[4.5]dec-8-yl)carbonyl]-1H-indol-1-yl}-N-[2-(dimethylamino)ethyl]acetamide], the figure is 184 nM; as for `Cc1c(C(=O)N2CCC3(CC2)C(=O)N(C)CN3c2ccccc2)c2ccccc2n1Cc1ccccc1` [Example 1, 8-[(1-Benzyl-2-methyl-1H-indol-3-yl)carbonyl]-3-methyl-1-phenyl-1,3,8-triazaspiro[4.5]decan-4-one], 368 nM; as for `CN1CN(c2ccccc2)C2(CCN(C(=O)c3cn(Cc4cccc(Cl)c4F)c4cc(Cl)ccc34)CC2)C1=O` [Example 13, 8-{[6-Chloro-1-(3-chloro-2-fluorobenzyl)-1H-indol-3-yl]carbonyl}-3-methyl-1-phenyl-1,3,8-triazaspiro[4.5]decan-4-one], 73 nM. The same measure for `CN1CN(c2ccccc2)C2(CCN(C(=O)c3cn(Cc4ccccc4)c4cc(Cl)ccc34)CC2)C1=O` [Example 11, 8-[(1-Benzyl-6-chloro-1H-indol-3-yl)carbonyl]-3-methyl-1-phenyl-1,3,8-triazaspiro[4.5]decan-4-one]: 45 nM; for `Cc1c(C(=O)N2CCC3(CC2)OCCO3)c2ccccc2n1Cc1ccccc1` [Example 15, (1-Benzyl-2-methyl-1H-indol-3-yl)-(1,4-dioxa-8-aza-spiro[4.5]dec-8-yl)-methanone]: 424 nM.

`CN(C)C(=O)Cn1cc(C(=O)N2CCC3(CC2)C(=O)N(C)CN3c2ccccc2)c2ccc(Cl)cc21` [Example 10, 2-{6-Chloro-3-[(3-methyl-4-oxo-1-phenyl-1,3,8-triazaspiro[4.5]dec-8-yl)carbonyl]-1H-indol-1-yl}-N,N-dimethylacetamide] registered an inhibition constant Ki of 14 nM.

By Ki is commonly meant a measure of affinity in units of concentration, obtained from inhibition or displacement. A high value points to lower affinity.

Values taken from patent US7790752B2, “Indol-3-yl-carbonyl-azaspiro derivatives” (Hoffmann-La Roche Inc., priority 2005, dated 2010).
